For assay [1], the target named is β-glucan receptor of monocytes. The settings on record: Table 1; value from Czop and Austen, J. Immunology 135(5):3388-3393 (1985); cited from earlier work.
The subject of assay [2] is β-glucan receptor of monocytes. In words: Inhibition of Zymosan ingestion by human monocytes (affinity for the monocyte β-glucan receptor). It is filed as cell-based. As for the experimental part: Human monocytes were incubated with various concentrations of the PGG for 15 minutes, washed to remove unbound glucan and then incubated with Zymosan for 30 minutes. After fixing and staining the monolayers, the percentage of monocytes ingesting Zymosan was determined. The affinity of glucan preparations for the β-glucan receptor by was measured according to their ability to competitively occupy the receptor thus inhibiting the uptake of Zymosan by monocytes. Samples were compared by taking the concentration of glucan required to obtain 50% inhibition of Zymosan ingestion.
Two molecular weight fractions of PGG from Saccharomyces cerevisiae R4 were prepared according to the procedure outlined in Example 2. The PGG preparations were then assayed for their affinity to the monocyte β-glucan receptor by measuring inhibition of Zymosan phagocytosis as described in Example 3.

In assay [3] the test system is peripheral white blood cell (WBC) counts. In words: Peripheral total and differential white blood cell counts in mice after IV or SC PGG. In kind it is in vivo, male CD-1 mice. As for the experimental part: The effect of in vivo administration of modified glucans on peripheral white blood cell (WBC) counts was characterized in mice. PGG preparations of the modified glucan from strain R4 were prepared according to the procedure outlined in Example 2 and administered intravenously (IV) and subcutaneously (SC) to male CD-1 mice. Total and differential cell counts were monitored at regular time intervals.

A further assay deals with E. coli strain TVDL-rat. The assay can be described thus: E. coli sepsis model in mice. It is filed as in vivo. The procedure:
A sepsis model was developed in mice to characterize the efficacy of modified PGG glucans in protecting an immunologically intact host against serious infections, such as those which commonly occur following abdominal surgery. PGG derived from WGP-R4 was prepared according to the procedure outlined in Example 2.
The model used intraperitoneal challenge of mice with an 0.1 ml suspension of E. coli strain TVDL-rat (approximately 10^8 CFU/ml) 24 hours following IV administration of PGG by single bolus injection using transthoracic cardiac puncture. Mice were returned to their cages and maintained on food and water ad libitum. A control group of 10 mice were injected with 0.1 ml sterile saline at the time of the PGG administration. Mortality rates for the treatment groups and saline control group were recorded at 48 hours after challenge.

[4] abbreviates: most pronounced increase, FIGS. 2 and 3, mice.
Setting [5] is: multiple-dose SC regimen, 5 mg/mouse/day×4 days, after initiation of therapy.

Bounds are passed on as bounds.

Regarding Barley β-Glucan [reference compound], the “Concentration for 50% Inhibition” value in assay [1] is 65 µg/mL. In addition, the “Relative Avidity” value in assay [2] (Table 1, relative to Barley β-Glucan = 1) was found to be 1.

“poly-(1-6)-β-D-glucopyranosyl-(1-3)-β-D-glucopyranose [PGG]”: the “time to amplification of total WBC counts” value in assay [3] (FIGS. 2 and 3, mice) was less than 6 h. Moreover, in assay [3] (setting [4]), the “increase in granulocyte count” value was determined as 6 × and the “increase in monocyte count” value is recorded as 12 ×. The “increase in average monocyte count, zero hours to 144 hours” value in assay [3] (multiple-dose SC regimen) stood at 24 fold. For the same substance, in assay [3] (setting [5]), the “time at which increase in total WBC begins” value stood at 48 h and the “time at which increase in total WBC peaks” value was found to be 144 h. In assay [3] (multiple-dose SC regimen, at 144 hours (320/mm^3 at zero hours)), the average monocyte count result is recorded as “approximately 8,000 /mm^3”. Also, the “total WBC count” value in assay [3] (single-dose IV administration, 5 mg/mouse) was “profound increase”. In assay [2] (human monocytes incubated with glucan 15 minutes, then Zymosan 30 minutes, FIG. 1), the “concentration of glucan required to obtain 50% inhibition of Zymosan ingestion” value was found to be 0.1 µg/mL. The “increase in activity (affinity for monocyte β-glucan receptor) versus YE glucan” value in assay [2] (ratio of concentrations for 50% inhibition of Zymosan ingestion) was 35 fold. In the assay with E. coli strain TVDL-rat (single IV bolus 24 hours before E. coli challenge, equals 0.5 mg/kg body weight), the “lowest dose significantly reducing mortality” value came out at 0.01 mg/mouse. In the assay on E. coli strain TVDL-rat (single IV bolus 24 hours before intraperitoneal E. coli challenge, p<0.05, doses as low as 0.01 mg/mouse (0.5 mg/kg body weight)), the “mortality at 48 hours after challenge compared to saline control group” value is on record as “significantly reduced mortality”.
